“And” between values parts separate entries of the source, which are not always exact repeats. Identical values can stand only once. Like-named read-outs stand apart in the source and are kept apart here.
Tested on: human conjunctival tissue mast cells
Test: Inhibition of anti-human IgE-induced histamine release from human conjunctival tissue mast cells (HCTMC)
Format: cell-based
Protocol: Methods detailing preparation of monodispersed HCTMC and mediator release studies with these cells have been described (U.S. Pat. No. 5,360,720 and Miller et al, Ocular Immunology and Inflammation, 4(1):39-49 (1996)). Briefly, human conjunctival tissue mast cells were isolated from post-mortem tissue donors obtained within 8 hours of death by various eye banks and transported in Dexsol® corneal preservation medium, or equivalent. Tissues were enzymatically digested by repeated exposure (30 min. at 37° C.) to collagenase and hyaluronidase (2× with 200 U each/gram tissue, then 2-4× with 2000 U each/gram tissue) in Tyrode's buffer containing 0.1% gelatin. (Tyrode's buffer (in mM): 137 NaCl, 2.7 KCl, 0.35 NaH2PO4, 1.8 CaCl2, 0.98 MgCl2, 11.9 NaHCO3, and 5.5 glucose). Each digestion mixture was filtered over Nitex® cloth (100 μm mesh, Tetko, Briarcliff Manor, N.Y.) and washed with an equal volume of buffer. Filtrates were centrifuged at 825×g (7 min). Pellets were resuspended in buffer then combined for enrichment over a […] Percoll® cushion. The enriched pellet was washed, resuspended in supplemented RPMI 1640 medium and incubated at 37° C. to equilibrate.
Cells were harvested from the culture plate and counted for viability (trypan blue exclusion) and mast cell number (toluidine blue O). Mast cells (5000/tube; 1 mL final volume) were challenged (37° C.) for 15 min with goat-anti-human IgE (10 μg/mL) following treatment (15 minutes; 37° C.) with test drug or Tyrode's buffer. Total and non-specific release controls were exposed to 0.1% Triton X-100 and goat IgG (10 μg/mL), respectively. The reaction was terminated by centrifugation (500×g, 4° C., 10 min). Supernatants were stored at −20° C. until analyzed for histamine content by RIA (Beckman Coulter, Chicago, Ill.).
All test drugs were made to solution immediately prior to use. Each was dissolved in DMSO at 10 mM or greater concentration and then diluted in Tyrode's buffer containing 0.1% gelatin over the concentration for evaluation.
Inhibition of histamine release was determined by direct comparison of with anti-IgE challenged mast cells using Dunnett's t-test (Dunnett, “A multiple comparison procedure for comparing treatments with a control”, J. Amer. Stat. Assoc. (1955), 50:1096-1121).

[1] = Homo sapiens, Mast cell, bracketed value = mean of the two determinations, anti-IgE challenged human conjunctival mast cells, read-out: IC50(nM), inhibition of histamine release, value in square brackets
[2] = individual determinations, mast cells 5000/tube, 15 min drug treatment at 37° C., then 15 min challenge with goat-anti-human IgE (10 μg/mL), histamine by RIA, read-out: IC50(nM), inhibition of histamine release

Row | Compound | IC50 [1] [nM] | IC50 [2] | IC50 (Homo sapiens, Mast cell, 0.25 h, individual determinations, mast cells 5000/tube, 15 min drug treatment at 37° C., then 15 min challenge with goat-anti-human IgE (10 μg/mL), histamine by RIA, read-out: IC50(nM), inhibition of histamine release) [nM]
1 | C=CCC(=O)Nc1ccccc1SSc1ccccc1NC(=O)CC=C [Compound 1] | 56 | 85 nM and 27 nM | –
2 | C=C(C)C(=O)Nc1ccccc1SSc1ccccc1NC(=O)C(=C)C [Compound 3] | 491 | 690 nM and 292 nM | –
3 | CC(O)CC(=O)Nc1ccccc1SSc1ccccc1NC(=O)CC(C)O (stereo not drawn) [Compound 4] | – | 3180 nM and < 1000 nM | –
4 | CC(C)(C)C(=O)Nc1ccccc1SSc1ccccc1NC(=O)C(C)(C)C [Compound 6] | – | – | 1700

Other lines, results leading:

Row | IC50 [1] [nM] | IC50 [2] | IC50 (Homo sapiens, Mast cell, 0.25 h, individual determinations, mast cells 5000/tube, 15 min drug treatment at 37° C., then 15 min challenge with goat-anti-human IgE (10 μg/mL), histamine by RIA, read-out: IC50(nM), inhibition of histamine release) [nM] | Compound
5 | 481 | 656 nM and 306 nM | – | CC(=O)Nc1ccccc1SSc1ccccc1NC(C)=O [Compound 2]
6 | 1190 | – | – | CCOC(=O)Nc1ccccc1SSc1ccccc1NC(=O)OCC [Compound 5]

Reference: patent US6452052B1, “Aniline disulfide derivatives for treating allergic diseases” (Alcon Universal Ltd., priority 2000, dated 2002)
